# Experimental data reported in paper PMC2941209 (Synapse (New York, N.Y.), 2010).
# Several values for one entry are separate records, joined by “and”; a condition that tells them apart may be missing. Identical values can stand only once. Counter-ions that a name gives are not always drawn.
# Tests used:
# SERT [1] = molecular target: T1, SERT (Rattus norvegicus, UniProt P31652); assay: [3H]5-HT release assay; settings: for Emax [3H]5-HT release, 15 μM EG-1-149 / Emax [3H]5-HT release, NO EG-1-149: ±SD (n=6); for EMAX substrate-induced [3H]5-HT release, CONTROL: substrate alone (control), 100% = release by 100 μM tyramine, ±SD
# SERT [2] = molecular target: T1, SERT; assay: [3H]5-HT uptake inhibition assay; assay type: biochemical
# SERT [3] = molecular target: T1, SERT; assay: biochemical
# DAT = settings: read-out: IC50 reuptake inhibition, DAT; ref Greiner et al., 2003; cited from earlier work
# [4] = 1 μM test compound, substrate MDMA
# T1 sequence (P31652 whole entry): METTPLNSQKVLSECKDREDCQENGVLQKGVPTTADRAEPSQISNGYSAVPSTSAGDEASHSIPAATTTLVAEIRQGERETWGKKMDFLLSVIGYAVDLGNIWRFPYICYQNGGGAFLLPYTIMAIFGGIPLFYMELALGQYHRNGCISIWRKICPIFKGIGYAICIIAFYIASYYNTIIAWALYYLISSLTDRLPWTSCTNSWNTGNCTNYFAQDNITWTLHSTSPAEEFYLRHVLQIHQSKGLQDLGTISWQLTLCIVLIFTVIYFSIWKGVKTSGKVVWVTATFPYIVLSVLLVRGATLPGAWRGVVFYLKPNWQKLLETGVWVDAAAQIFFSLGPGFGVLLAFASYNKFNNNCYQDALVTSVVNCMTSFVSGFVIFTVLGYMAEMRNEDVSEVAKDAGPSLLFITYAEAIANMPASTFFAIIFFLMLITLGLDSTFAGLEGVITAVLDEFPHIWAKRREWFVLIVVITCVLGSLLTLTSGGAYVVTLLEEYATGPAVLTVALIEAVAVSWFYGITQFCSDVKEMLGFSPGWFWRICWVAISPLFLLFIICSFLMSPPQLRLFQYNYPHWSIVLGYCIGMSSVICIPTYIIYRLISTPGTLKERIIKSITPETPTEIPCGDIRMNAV
structure (smiles),measurement,setting,value
CNC(C)Cc1ccc2c(c1)OCO2 (racemic) [(±)-MDMA],EC50,SERT [1],88 ± 10 nM
same,Emax,"SERT [1]; read-out: EMAX substrate-induced [3H]5-HT release, CONTROL",105%
"CC(N)Cc1cccc(C(F)(F)F)c1 (single isomer, unassigned; (+)) [(+)-Norfenfluramine]","Emax [3H]5-HT release, 15 μM EG-1-149",SERT [1]; release time 5 min,81 ± 3 %I
same,"Emax [3H]5-HT release, 15 μM EG-1-149","SERT [1]; release time 5 min, listed as (+)-norfenfluramine",81±3 %I
same,"Emax [3H]5-HT release, NO EG-1-149",SERT [1]; release time 5 min,114 ± 8 %I
same,"Emax [3H]5-HT release, 15 μM EG-1-149",SERT [1]; release time 15 min,97 ± 4 %I
same,"Emax [3H]5-HT release, 15 μM EG-1-149","SERT [1]; release time 15 min, listed as (+)-norfenfluramine",97±4 %I
same,"Emax [3H]5-HT release, NO EG-1-149",SERT [1]; release time 15 min,111 ± 5 %I
same,"EMAX substrate-induced [3H]5-HT release, CONTROL",SERT [1],113±6%
NCCc1c[nH]c2ccc(O)cc12 [5-HT],"EMAX substrate-induced [3H]5-HT release, CONTROL",SERT [1],85±1%
"Brc1ccc(CN2CCC(CCOC(c3ccccc3)c3ccccc3)CC2)cc1 [EG-1-149, 4-(2-(Benzhydryloxy)ethyl)-1-(4-bromobenzyl)piperidine oxalate]",IC50,SERT [2],1760 nM
same,Ki,SERT [3],713 nM and 1180 nM and 4820 nM and 2900 nM and 1770 nM
same,IC50,DAT,5.1 ± 0.4 nM
"Cc1cc(NC(=O)Nc2ccc3c(ccn3C)c2)sn1 [SB204741, N-(1-Methyl-1H-indol-5-yl)-N′-(3-methylisothiazol-5-yl)urea]",IC50,SERT [2],38000 nM
same,effect on EMAX of MDMA-induced [3H]5-HT release,SERT [1]; [4],without altering the EMAX values
same,rightward shift of the MDMA dose-response curve ([3H]5-HT release),SERT [1]; [4],3–4 fold
"Clc1cccc(N2CCNCC2)c1 [mCPP, meta-chlorophenylpiperazine]","EMAX substrate-induced [3H]5-HT release, CONTROL",SERT [1],94±3% and 91±1%
